Laboratory results reported in PubChem BioAssay (NCI).
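How tested: cells in 96-well plates exposed to compound for 48 hours at five concentrations. GI50: concentration for 50% inhibition of growth. Definition used: TGI = concentration required for complete inhibition of growth.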

How the values were obtained:
Experiment in all cases: inhibition of tumour cell growth, NCI panel, 48 h
[1] = system: COLO 205 colon
[2] = system: UACC-257 melanoma
[3] = system: UACC-62 melanoma
[4] = system: 786-0 renal
[5] = system: SK-OV-3 ovarian
[6] = system: K-562 leukemia
[7] = system: MCF7 breast
[8] = system: TK-10 renal
[9] = system: HOP-92 NSCLC
[10] = system: SNB-19 CNS

Structure (SMILES)	GI50 [1] [µM]	TGI [1] [µM]	GI50 [2] [µM]	TGI [2] [µM]	GI50 [3] [µM]	TGI [3] [µM]	GI50 [4] [µM]	TGI [4] [µM]	GI50 [5] [µM]	TGI [5] [µM]	GI50 [6] [µM]	TGI [6] [µM]	GI50 [7] [µM]	TGI [7] [µM]	GI50 [8] [µM]	TGI [8] [µM]	GI50 [9] [µM]	TGI [9] [µM]	GI50 [10] [µM]	TGI [10] [µM]
COc1cc(/C=C/C(=O)/C=C/c2cc3ccc(Cl)cc3n(Cc3ccccc3)c2=O)ccc1O	1.97	6.25	2.06	4.83	1.29	3.71	1.78	3.58	5.95	57.1	1.89	> 100	0.418	12.3	2.44	5.5	2.21	5.44	1.73	3.88
C/C(=N\n1c(O)c(C#N)cc(C#N)c1=O)c1ccncc1	> 100	> 100	> 100	> 100	> 100	> 100	> 100	> 100	> 100	> 100	> 100	> 100	> 100	> 100	> 100	> 100	> 100	> 100	> 100	> 100
O=C1c2ccccc2C(=O)c2c1ccc1c(=O)n(-c3ccccc3C(F)(F)F)nnc21	1.83	4.28	1.71	3.51	1.52	3.21	4.09	> 100	3.52	> 100	1.76	> 100	1.86	4.64	3.89	> 100	2.08	5.94	2.68	31.2
CCN(CC)CCC(CNc1ccnc2cc(Cl)ccc12)c1ccccc1 (centres undefined)	1.45	3.33	1.86	3.36	2.04	5.05	3.69	13.5	18.4	52.8	1.46	5.61	4.75	18	2.11	6.27	4.51	21	16.2	74.1
CCCCCC[C@@H](C)Nc1nc2ccccc2c2occc12	21.2	> 100	4.67	24	13.2	25.9	14.3	27.8	15.7	32.2	19.9	> 100	10.5	> 100	10	23.6	11.2	27.2	17.7	50.1
NC(Cc1c[nH]c2ccc(F)cc12)C(=O)O (centres undefined)	340	1010	475	1220	755	> 2500	1200	> 2500	451	1370	887	> 2500	911	> 2500	> 2500	> 2500		> 2500	1680	> 2500
